Several values for one entry are separate records, joined by “and”; a condition that tells them apart may be missing. Equal entries are not always repeated.
Assay: Oral administration pharmacokinetic studies in rats (thiorphan plasma concentration, HPLC)
Assay type: in vivo, Sprague Dawley rats
Experimental: Formulations were administered to rats at doses expected to be pharmacologically effective for estimation of the bioavailability. Blood was drawn at specified time points and plasma concentration of thiorphan was assessed.
Animals: Sprague Dawley rats, approximate weight 250 g. Animal preparation: Deprived of food (but not of water) during 18 h preceding dosing. Mode of administration: thiorphan (i.v.) and racecadotril (p.o.) by oral gavage. Blood sampling volume: 300 μl/per sample.
Blood was drawn at specified time points. Plasma was immediately frozen and kept at −80° C. for assessment of thiorphan concentration by HPLC.
Formulation nr. 8 (example 2) was administered to rats p.o. at dose of 20 mg/kg. One group of rats was given thiorphan i.v. at a dose of 13.4 mg/kg as a reference. […]

[1] = individual rats, thiorphan i.v. 13.4 mg/kg, 13.4 mg/kg

AUC(0-inf) (Sprague Dawley, rat, plasma, iv, 13.4 mg/kg, average of 3 rats, thiorphan i.v. 13.4 mg/kg, read-out: AUCinf (thiorphan), Avg): 1710 ng·h/mL
Cmax (Sprague Dawley, rat, plasma, iv, 13.4 mg/kg, individual rats, thiorphan i.v. 13.4 mg/kg): 15900 ng/mL
Tmax (Sprague Dawley, rat, plasma, iv, individual rats, thiorphan i.v. 13.4 mg/kg): 1.98 min
Cmax (thiorphan) [1]: 17649 ng/mL and 21914 ng/mL
T_half (thiorphan) [1]: 1.31 h and 0.57 h and 1.81 h
Rel BA (%) (thiorphan i.v. 13.4 mg/kg (reference)): 100%
Compound: O=C(O)CNC(=O)C(CS)Cc1ccccc1 (centres unmarked) [Thiorphan, thiorphan]
AUCinf (thiorphan) [1]: 2403 ng·h/mL and 1857 ng·h/mL and 871 ng·h/mL
AUCt (thiorphan) [1]: 2392 ng·h/mL and 1843 ng·h/mL and 857 ng·h/mL
